Data from patent US11247990B1, “Bicyclic fused pyridine compounds as inhibitors of TAM kinases” (ARRAY BIOPHARMA INC., priority 2017, dated 2022).
Structures can show the parent of a compound that is named as a salt.

Legend:
Conditions in all cases: averaged IC50
[1] = biological target: His-tagged recombinant human MER cytoplasmic domain (Homo sapiens (Human), UniProt Q12866); experiment: MER Enzyme Assay (LanthaScreen Eu Kinase Binding, TR-FRET)
In short: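 LanthaScreen Eu kinase binding (tracer displacement) assay with His-tagged human MER cytoplasmic domain, 60 min incubation at 22 °C. TR-FRET dual-wavelength emission ratio converted to percent of control; IC50 is where the 4-parameter logistic fit crosses 50 POC.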

[2] = biological target: His-tagged recombinant human AXL cytoplasmic domain (Homo sapiens (Human), UniProt P30530); experiment: AXL Enzyme Assay (LanthaScreen Eu Kinase Binding, TR-FRET)
Sequence of His-tagged recombinant human AXL cytoplasmic domain (P30530 473-894): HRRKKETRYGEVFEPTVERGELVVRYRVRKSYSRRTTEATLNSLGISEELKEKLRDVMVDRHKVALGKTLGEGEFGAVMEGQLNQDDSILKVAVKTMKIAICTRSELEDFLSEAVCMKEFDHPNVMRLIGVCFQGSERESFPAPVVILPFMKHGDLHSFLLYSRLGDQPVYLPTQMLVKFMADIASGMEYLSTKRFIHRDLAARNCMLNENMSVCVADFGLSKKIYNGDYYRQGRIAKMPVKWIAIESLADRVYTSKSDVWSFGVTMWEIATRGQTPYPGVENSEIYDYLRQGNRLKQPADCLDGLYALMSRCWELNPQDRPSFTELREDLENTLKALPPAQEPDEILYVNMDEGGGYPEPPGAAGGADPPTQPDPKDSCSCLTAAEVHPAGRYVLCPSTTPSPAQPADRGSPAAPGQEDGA
Experimental: Compounds of Formula I were screened for their ability to inhibit AXL kinase using Invitrogen's LanthaScreen™ Eu Kinase Binding technology. […] After a 60-minute incubation at 22° C., the reaction was measured using a PerkinElmer EnVision multimode plate reader via TR-FRET dual wavelength detection, and the percent of control (POC) was calculated using a ratiometric emission factor. […] The POC values are fit to a 4 parameter logistic curve and the IC50 value is point where the curve crosses 50 POC.

[3] = biological target: GST-tagged recombinant human TYRO3 kinase domain (Homo sapiens (Human), UniProt Q06418); experiment: TYRO3 Enzyme Assay (LanthaScreen Eu Kinase Binding, TR-FRET)
Sequence of GST-tagged recombinant human TYRO3 kinase domain (Q06418 518-790): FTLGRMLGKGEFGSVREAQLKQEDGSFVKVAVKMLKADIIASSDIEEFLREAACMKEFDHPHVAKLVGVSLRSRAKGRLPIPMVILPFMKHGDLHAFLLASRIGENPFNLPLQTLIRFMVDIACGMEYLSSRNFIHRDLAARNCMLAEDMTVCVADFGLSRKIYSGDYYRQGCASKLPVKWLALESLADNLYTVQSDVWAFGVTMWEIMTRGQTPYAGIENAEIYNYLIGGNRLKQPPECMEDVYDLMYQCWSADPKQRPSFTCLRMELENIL
In short: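 LanthaScreen Eu binding (tracer displacement) format read by TR-FRET after 60 min at 22 °C. Emission ratio converted to percent of control; IC50 taken where a 4-parameter logistic fit crosses 50 POC.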

Sequence of His-tagged recombinant human MER cytoplasmic domain (Q12866 527-999): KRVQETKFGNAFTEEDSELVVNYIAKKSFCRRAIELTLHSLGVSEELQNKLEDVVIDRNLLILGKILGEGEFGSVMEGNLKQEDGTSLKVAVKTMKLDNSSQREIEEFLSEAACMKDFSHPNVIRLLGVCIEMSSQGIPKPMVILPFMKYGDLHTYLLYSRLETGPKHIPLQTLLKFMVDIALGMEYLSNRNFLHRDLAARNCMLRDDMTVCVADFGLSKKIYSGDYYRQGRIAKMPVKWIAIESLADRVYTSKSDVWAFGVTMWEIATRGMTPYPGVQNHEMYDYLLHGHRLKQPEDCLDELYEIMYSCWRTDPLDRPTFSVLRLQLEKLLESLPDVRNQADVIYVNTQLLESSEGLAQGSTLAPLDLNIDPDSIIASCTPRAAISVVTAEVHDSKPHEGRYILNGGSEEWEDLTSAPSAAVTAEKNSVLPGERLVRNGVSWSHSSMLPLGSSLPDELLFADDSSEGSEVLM

SMILES | IC50 [1] [nM] | IC50 [2] [nM] | IC50 [3] [nM]
CCNc1cc2c(cn1)c(-c1cnn(C(C)(C)CO)c1)nn2[C@H]1CC[C@@H](Oc2nccc(C(F)(F)F)c2F)CC1 [Example 299, 2-(4-(6-(ethylamino)-1-((1s,4s)-4-((3-fluoro-4-(trifluoromethyl)pyridin-2-yl)oxy)cyclohexyl)-1H-pyrazolo[4,3-c]pyridin-3-yl)-1H-pyrazol-1-yl)-2-methylpropan-1-ol] | < 10 | < 10 | 10 to 100
CNc1cc2c(cn1)c(-c1cnn(C(C)(C)C#N)c1)nn2[C@H]1CC[C@@H](Oc2cnn(C)c2C(F)(F)F)CC1 [Example 263, 2-methyl-2-(4-(1-((1s,4s)-4-((1-methyl-5-(trifluoromethyl)-1H-pyrazol-4-yl)oxy)cyclohexyl)-6-(methylamino)-1H-pyrazolo[4,3-c]pyridin-3-yl)-1H-pyrazol-1-yl)propanenitrile] | < 10 | < 10 | 100 to 1000
CCNc1cc2c(cn1)c(-c1cnn(C)c1)nn2[C@H]1CC[C@@H](Oc2cccc(F)c2F)CC1 [Example 374, 1-((1s,4s)-4-(2,3-difluorophenoxy)cyclohexyl)-N-ethyl-3-(1-methyl-1H-pyrazol-4-yl)-1H-pyrazolo[4,3-c]pyridin-6-amine] | < 10 | < 10 | 10 to 100
CCn1c(O[C@H]2CC[C@@H](n3nc(-c4cnn(C)c4)c4cnc(NC)cc43)CC2)cccc1=O [Example 111, 1-ethyl-6-(((1s,4s)-4-(3-(1-methyl-1H-pyrazol-4-yl)-6-(methylamino)-1H-pyrazolo[4,3-c]pyridin-1-yl)cyclohexyl)oxy)pyridin-2(1H)-one] | < 10 | < 10 | 10 to 100
CCNc1cc2c(cn1)c(N1CC[C@@H](N(C)C)C1)nn2[C@H]1CC[C@@H](Oc2nccc(C(F)(F)F)c2F)CC1 (stereo in doubt) [Example 334, 3-(®-3-(dimethylamino)pyrrolidin-1-yl)-N-ethyl-1-((1s,4S)-4-((3-fluoro-4-(trifluoromethyl)pyridin-2-yl)oxy)cyclohexyl)-1H-pyrazolo[4,3-c]pyridin-6-amine] | < 10 | < 10 | < 10
CNc1cc2c(cn1)c(-c1cnn(C)c1)nn2[C@@H]1CC[C@H](Oc2ccccc2)[C@@H](O)C1 [Example 471A, (1S,2S,5R)-5-(3-(1-methyl-1H-pyrazol-4-yl)-6-(methylamino)-1H-pyrazolo[4,3-c]pyridin-1-yl)-2-phenoxycyclohexan-1-ol] | < 10 | < 10 | 10 to 100
CCNc1cc2c(cn1)c(-c1cnn(C)c1)nn2[C@H]1CC[C@@H](Oc2cccc(C#N)c2F)CC1 [Example 497] | < 10 | < 10 | < 10
CCNc1cc2c(cn1)c(-c1cnn(C[C@@H](O)CO)c1)nn2[C@H]1CC[C@@H](Oc2cccc(F)c2F)CC1 [Example 429, (R)-3-(4-(1-((1s,4S)-4-(2,3-difluorophenoxy)cyclohexyl)-6-(ethylamino)-1H-pyrazolo[4,3-c]pyridin-3-yl)-1H-pyrazol-1-yl)propane-1,2-diol] | < 10 | < 10 | < 10
CNC(=O)c1ccc(O[C@H]2CC[C@@H](n3nc(-c4cnn(C)c4)c4cnc(NC)cc43)CC2)c(C(F)(F)F)c1 [Example 393, N-methyl-4-(((1s,4s)-4-(3-(1-methyl-1H-pyrazol-4-yl)-6-(methylamino)-1H-pyrazolo[4,3-c]pyridin-1-yl)cyclohexyl)oxy)-3-(trifluoromethyl)benzamide] | < 10 | < 10 | 10 to 100
CCNc1cc2c(cn1)c(-c1ccn(C)c(=O)c1)nn2[C@H]1CC[C@@H](Oc2nccc(C(F)(F)F)c2F)CC1 [Example 297, 4-(6-(ethylamino)-1-((1s,4s)-4-((3-fluoro-4-(trifluoromethyl)pyridin-2-yl)oxy)cyclohexyl)-1H-pyrazolo[4,3-c]pyridin-3-yl)-1-methylpyridin-2(1H)-one] | < 10 | < 10 | 10 to 100
CNc1cc2c(cn1)c(-c1cnn(C[C@H](O)CO)c1)nn2[C@H]1CC[C@@H](Oc2cccnc2C(F)(F)F)CC1 [Example 204, (S)-3-(4-(6-(methylamino)-1-((1s,4R)-4-((2-(trifluoromethyl)pyridin-3-yl)oxy)cyclohexyl)-1H-pyrazolo[4,3-c]pyridin-3-yl)-1H-pyrazol-1-yl)propane-1,2-diol hydrochloride] | < 10 | < 10 | < 10
CCNc1cc2c(cn1)c(-c1cnn(C)c1)nn2[C@H]1CC[C@@H](Oc2cccnc2C#N)CC1 [Example 188, 3-(((1s,4s)-4-(6-(ethylamino)-3-(1-methyl-1H-pyrazol-4-yl)-1H-pyrazolo[4,3-c]pyridin-1-yl)cyclohexyl)oxy)picolinonitrile] | < 10 | < 10 | < 10
CNc1cc2c(cn1)c(-c1cnn(C)c1)nn2[C@H]1CC[C@@H](Oc2nccnc2C(F)(F)F)CC1 [Example 171, N-methyl-3-(1-methyl-1H-pyrazol-4-yl)-1-((1s,4s)-4-((3-(trifluoromethyl)pyrazin-2-yl)oxy)cyclohexyl)-1H-pyrazolo[4,3-c]pyridin-6-amine] | < 10 | < 10 | < 10
CNc1cc2c(cn1)c(-c1ccc(CN3CCN(C)CC3)cc1)nn2[C@H]1CC[C@@H](Oc2cnn(C)c2C(F)(F)F)CC1 [Example 264, N-methyl-1-((1s,4s)-4-((1-methyl-5-(trifluoromethyl)-1H-pyrazol-4-yl)oxy)cyclohexyl)-3-(4-((4-methylpiperazin-1-yl)methyl)phenyl)-1H-pyrazolo[4,3-c]pyridin-6-amine] | < 10 | < 10 | 10 to 100
CNc1cc2c(cn1)c(-c1cnn(C)c1)nn2[C@H]1CC[C@@H](Oc2cnn(C)c2C(F)(F)F)CC1 [Example 262, N-methyl-3-(1-methyl-1H-pyrazol-4-yl)-1-((1s,4s)-4-((1-methyl-5-(trifluoromethyl)-1H-pyrazol-4-yl)oxy)cyclohexyl)-1H-pyrazolo[4,3-c]pyridin-6-amine] | < 10 | < 10 | 10 to 100
CCNc1cc2c(cn1)c(-c1cnn(C[C@H](O)C(C)(C)O)c1)nn2[C@H]1CC[C@@H](Oc2cccc(F)c2F)CC1 [Example 445, (S)-1-(4-(1-((1s,4R)-4-(2,3-difluorophenoxy)cyclohexyl)-6-(ethylamino)-1H-pyrazolo[4,3-c]pyridin-3-yl)-1H-pyrazol-1-yl)-3-methylbutane-2,3-diol] | < 10 | < 10 | < 10
CNc1cc2c(cn1)c(-c1cnn(C)c1)nn2[C@H]1CC[C@@H](Oc2cn(C)nc2C(F)(F)F)CC1 [Example 162, N-methyl-3-(1-methyl-1H-pyrazol-4-yl)-1-((1s,4s)-4-((1-methyl-3-(trifluoromethyl)-1H-pyrazol-4-yl)oxy)cyclohexyl)-1H-pyrazolo[4,3-c]pyridin-6-amine] | < 10 | < 10 | < 10
CCNc1cc2c(cn1)c(N1CC[C@H](NC)C1)nn2[C@H]1CC[C@@H](Oc2cccc(C(F)(F)F)c2F)CC1 [Example 491, N-ethyl-1-((1s,4R)-4-(2-fluoro-3-(trifluoromethyl)phenoxy)cyclohexyl)-3-((S)-3-(methylamino)pyrrolidin-1-yl)-1H-pyrazolo[4,3-c]pyridin-6-amine] | < 10 | < 10 | 10 to 100
CCNc1cc2c(cn1)c(-c1cnn(C)c1)nn2[C@H]1CC[C@@H](Oc2cccc(C#N)c2C)CC1 [Example 382, 3-(((1s,4s)-4-(6-(ethylamino)-3-(1-methyl-1H-pyrazol-4-yl)-1H-pyrazolo[4,3-c]pyridin-1-yl)cyclohexyl)oxy)-2-methylbenzonitrile] | < 10 | < 10 | < 10
CCNc1cc2c(cn1)c(N1CC[C@@H](NC)C1)nn2[C@H]1CC[C@@H](Oc2nccc(C(F)(F)F)c2F)CC1 [Example 339, N-ethyl-1-((1s,4S)-4-((3-fluoro-4-(trifluoromethyl)pyridin-2-yl)oxy)cyclohexyl)-3-((R)-3-(methylamino)pyrrolidin-1-yl)-1H-pyrazolo[4,3-c]pyridin-6-amine] | < 10 | < 10 | < 10
CCNc1cc2c(cn1)c(-c1cnn(CC(C)(O)CO)c1)nn2[C@H]1CC[C@@H](Oc2ccccc2F)CC1 (stereo partly drawn) [Example 431, 3-(4-(6-(ethylamino)-1-((1s,4s)-4-(2-fluorophenoxy)cyclohexyl)-1H-pyrazolo[4,3-c]pyridin 3-yl)-1H-pyrazol-1-yl)-2-methylpropane-1,2-diol] | < 10 | < 10 | 10 to 100
CCNc1cc2c(cn1)c(-c1cnn(CC(N)=O)c1)nn2[C@H]1CC[C@@H](Oc2nccc(C(F)(F)F)c2F)CC1 [Example 248, 2-(4-(6-(ethylamino)-1-((1s,4s)-4-((3-fluoro-4-(trifluoromethyl)pyridin-2-yl)oxy)cyclohexyl)-1H-pyrazolo[4,3-c]pyridin-3-yl)-1H-pyrazol-1-yl)acetamide] | < 10 | < 10 | < 10
